# From PMC12274187, “Novel polycyclic meroterpenoids with protein tyrosine phosphatase 1B inhibitory activity isolated from desert-derived fungi Talaromyces sp. HMT-8” (Natural Products and Bioprospecting, 2025)
# “And” between values parts separate entries of the source, which are not always exact repeats. Equal values may be shown once.
# Legend:
# PTP1B [1] = target: T1, PTP1B (Homo sapiens, UniProt P18031); assay: PTP1B inhibitory assay (p-NPP substrate); format: biochemical; settings: absorbance at 405 nm, mean ± SD, three independent experiments, read-out: IC50 against PTP1B
# T1 sequence (P18031 1-435): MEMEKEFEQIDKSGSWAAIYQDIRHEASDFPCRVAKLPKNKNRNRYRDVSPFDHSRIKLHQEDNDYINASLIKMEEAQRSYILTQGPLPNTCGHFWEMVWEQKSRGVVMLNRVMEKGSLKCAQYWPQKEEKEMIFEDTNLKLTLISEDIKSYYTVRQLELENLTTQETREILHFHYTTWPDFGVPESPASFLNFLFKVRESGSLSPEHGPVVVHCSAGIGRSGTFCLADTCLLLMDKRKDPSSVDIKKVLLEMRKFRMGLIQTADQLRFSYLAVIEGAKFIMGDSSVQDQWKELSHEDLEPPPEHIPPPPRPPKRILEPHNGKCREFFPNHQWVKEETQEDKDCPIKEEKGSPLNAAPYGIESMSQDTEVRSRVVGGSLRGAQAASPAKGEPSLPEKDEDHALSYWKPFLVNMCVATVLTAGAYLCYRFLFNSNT
# Procedure: The p-nitrophenyl phosphate (p-NPP) was used as a substrate to evaluate enzyme inhibition assays, following a previously established protocol. The final assay volume was 100 μL. The 75 μL reaction buffer containing 50 mM HEPES, 100 mM NaCl, 1 mM EDTA, and 1 mM dithiothreitol, 10 μL protein, and 5 μL sample were added to a 96-well plate and incubated at room temperature for 15 min. Subsequently, 10 μL of reaction buffer containing p-NPP was added to the reaction system. Sodium orthovanadate (Na₃VO₄) and dimethyl sulfoxide (DMSO) were used as the positive and negative controls, respectively. Enzymatic activity was determined by measuring absorbance at 405 nm. The half-maximal inhibitory concentration (IC₅₀) values were obtained from three independent experiments. The percentage of inhibition was calculated using the following equation: ODcontrol-ODblank-ODcompound-ODblank/ODcontrol-ODblank×100%
# PTP1B [2] = target: T1, PTP1B; assay: Inhibition kinetic analysis (Lineweaver–Burk); format: biochemical; settings: for Type of inhibition of PTP1B: Lineweaver–Burk double-reciprocal plot; for Vmax in presence of compound: p-NPP substrate, increasing inhibitor concentration
# Procedure: The experimental procedure followed that described in the enzyme inhibition assay. The data were represented using Lineweaver–Burk double-reciprocal plots. The inhibition constants (Ki and Kis) were determined from the secondary plots of the slopes and intercepts derived from the Lineweaver–Burk plots.
IC50 (PTP1B [1]),Type of inhibition of PTP1B (PTP1B [2]),Vmax in presence of compound (PTP1B [2]),SMILES
1.74 ± 3.81 µM,competitive inhibitors,unchanged,"CC1Cc2c3c(cc(O)c2C(=O)O1)OC1(C)CCC(=O)C2(C)CC=C(C(C)(C)O)OC12C3 (stereo not drawn) [Compound 2, talarine L]"
8.54 ± 1.52 µM,–,–,"COC1(C(C)C)CCC2(C)C(=O)CCC3(C)Oc4cc(O)c5c(c4CC32O1)C(OC(C)=O)C(C)OC5=O (stereo not drawn) [Compound 4, talarine N]"
14.3 ± 0.86 µM,–,–,"CC1Cc2c3c(c(Cl)c(O)c2C(=O)O1)OC1(C)CCC2(O)OC4(C(C)(C)O)CCC2(C)C1(C3)O4 (stereo not drawn) [Compound 6, talarine P]"
6.57 ± 1.47 µM,–,–,"CC(=O)OC1c2c3c(c(Cl)c(O)c2C(=O)OC1C)OC1(C)CCC2(O)OC4(C(C)(C)O)CCC2(C)C1(C3)O4 (stereo not drawn) [Compound 5, talarine O]"
16.5 ± 0.6 µM,–,–,"CC1Cc2c3c(cc(O)c2C(=O)O1)OC1(C)CCC(O)C2(C)CCC(=O)OC12C3 (stereo not drawn) [Compound 1, talarine K]"
3.03 ± 2.25 µM,competitive inhibitors,unchanged,"CC(=O)O[C@@H]1c2c3c(cc(O)c2C(=O)O[C@@H]1C)O[C@]1(C)CCC(=O)[C@]2(C)CC=C(C(C)C)O[C@]12C3 [Compound 12, talaromyolide J]"
15.6 ± 1.6 µM,–,–,"CC1OC(=O)c2c(O)c(Cl)c3c(c2C1O)CC12OC4(O)CCC1(C)C(O)(CCC2(C)O3)C4(C)C (stereo not drawn) [Compound 7, talarine Q]"
8.54 µM and 17.6 µM,–,–,"COC1(C(C)C)CCC2(C)C(=O)CCC3(C)Oc4c(Cl)c(O)c5c(c4CC32O1)CC(C)OC5=O (stereo not drawn) [Compound 3, talarine M]"
